The source of these data is patent US20250197359A1, “CANNABINOID RECEPTOR MODULATING COMPOUNDS” (The U.S.A., as Represented by the Secretary, Department of …, priority 2022, published 2025).

Structures are written as SMILES.

One test concerns the target CB1 (UniProt P21554). The test is described as follows: CB1 radioligand binding assay. Also noted: species or system human. The settings on record: read-out: Ki (CB1). As to the method: The target compounds were evaluated in vitro at the human CB1 receptor, stably expressed into Chinese hamster ovary (CHO) cells by utilizing radioligand binding studies.
The binding constant for the synthesized compounds were determined by using radioligand binding assay in mouse brain membranes as well as the target compounds were evaluated in vitro at the human CB1 receptor, stably expressed into Chinese hamster ovary (CHO) cells as well as mouse brain membrane CB1. […]
In general, Ki refers to a measure of affinity in units of concentration, obtained from inhibition or displacement. For `CCC(N/C(=N/S(=O)(=O)c1ccc(C(F)(F)F)cc1)N1CCC(c2ccccc2)C(c2ccc(Cl)cc2)=N1)C(N)=O` (single isomer, unassigned) [Compound 32a, (Z)-2-(3-(4-chlorophenyl)-4-phenyl-N′-((4-(trifluoromethyl)phenyl)sulfonyl)-1,4,5,6-tetrahydropyridazine-1-carboximidamido) butanamide], the Ki is 785 nM.
The same measure, in the same setting: to `C/C(N)=N/C(=N/S(=O)(=O)c1ccc(C(F)(F)F)cc1)N1CCC(c2ccccc2)C(c2ccc(F)cc2)=N1` (stereo not drawn) [Compound 10zc, (Z)—N—((Z)-1-aminoethylidene)-3-(4-fluorophenyl)-4-phenyl-N′-((4-(trifluoromethyl)phenyl)sulfonyl)-5,6-dihydropyridazine-1 (4H)-carboximidamide] belongs 120 nM; to `CS/C(N)=N\C(=N\S(=O)(=O)c1ccc(Cl)cc1)N1CCC(c2ccccc2)C(c2ccc(Cl)cc2)=N1` (stereo not drawn) [Compound 11a, methyl (Z)—N′—((Z)-(3-(4-chlorophenyl)-4-phenyl-5,6-dihydropyridazin-1 (4H)-yl)(((4-chlorophenyl)sulfonyl)imino)methyl)carbamimidothioate], 210 nM; to `CS/C(N)=N\C(=N\S(=O)(=O)c1cccc(C(F)(F)F)c1)N1CCC(c2ccccc2)C(c2ccc(Cl)cc2)=N1` (stereo not drawn) [Compound 11c, methyl (Z)—N′—((Z)-(3-(4-chlorophenyl)-4-phenyl-5,6-dihydropyridazin-1 (4H)-yl)(((3-(trifluoromethyl)phenyl)sulfonyl)imino)methyl)carbamimidothioate], 234 nM.
On the same count and under the same terms, to `CS/C(N)=N\C(=N\S(=O)(=O)c1ccc(OC(F)(F)F)cc1)N1CCC(c2ccccc2)C(c2ccc(Cl)cc2)=N1` (stereo not drawn) [Compound 11d, methyl (Z)—N′—((Z)-(3-(4-chlorophenyl)-4-phenyl-5,6-dihydropyridazin-1 (4H)-yl)(((4-(trifluoromethoxy)phenyl)sulfonyl)imino)methyl)carbamimidothioate] belongs 151 nM; to `CS/C(N)=N\C(=N\S(=O)(=O)c1ccc(C#N)cc1)N1CCC(c2ccccc2)C(c2ccc(Cl)cc2)=N1` (stereo not drawn) [Compound 11e, methyl (Z)—N′—((Z)-(3-(4-chlorophenyl)-4-phenyl-5,6-dihydropyridazin-1 (4H)-yl)(((4-cyanophenyl)sulfonyl)imino)methyl)carbamimidothioate], 138 nM; to `CS/C(N)=N\C(=N\S(=O)(=O)c1ccc2ccccc2c1)N1CCC(c2ccccc2)C(c2ccc(Cl)cc2)=N1` (stereo not drawn) [Compound 11f, methyl (Z)—N′—((Z)-(3-(4-chlorophenyl)-4-phenyl-5,6-dihydropyridazin-1 (4H)-yl)((naphthalen-2-ylsulfonyl)imino)methyl)carbamimidothioate], 590 nM.
With `CS/C(N)=N\C(=N\S(=O)(=O)c1ccccc1)N1CCC(c2ccccc2)C(c2ccc(Cl)cc2)=N1` (stereo not drawn) [Compound 11g, methyl (Z)—N′—((Z)-(3-(4-chlorophenyl)-4-phenyl-5,6-dihydropyridazin-1 (4H)-yl)((phenylsulfonyl)imino)methyl)carbamimidothioate], the Ki was 1600 nM.
On the same count and under the same terms, to `COc1ccc(S(=O)(=O)/N=C(/N=C(/N)SC)N2CCC(c3ccccc3)C(c3ccc(Cl)cc3)=N2)cc1` (stereo not drawn) [Compound 11h, methyl (Z)—N′—((Z)-(3-(4-chlorophenyl)-4-phenyl-5,6-dihydropyridazin-1 (4H)-yl)(((4-methoxyphenyl)sulfonyl)imino)methyl)carbamimidothioate] belongs 1070 nM; to `C[Se]/C(N)=N\C(=N\S(=O)(=O)c1ccc(OC(F)(F)F)cc1)N1CCC(c2ccccc2)C(c2ccc(Cl)cc2)=N1` (stereo not drawn) [Compound 12d, methyl (Z)—N′—((Z)-(3-(4-chlorophenyl)-4-phenyl-5,6-dihydropyridazin-1 (4H)-yl)(((4-(trifluoromethoxy)phenyl)sulfonyl)imino)methyl)carbamimidoselenoate], 194 nM.
Still for that read-out and setting: to `C[Se]/C(N)=N\C(=N\S(=O)(=O)c1ccc(C#N)cc1)N1CCC(c2ccccc2)C(c2ccc(Cl)cc2)=N1` (stereo not drawn) [Compound 12e, methyl (Z)—N′—((Z)-(3-(4-chlorophenyl)-4-phenyl-5,6-dihydropyridazin-1 (4H)-yl)(((4-cyanophenyl)sulfonyl)imino)methyl)carbamimidoselenoate] belongs 179 nM; to `C[Se]/C(N)=N\C(=N\S(=O)(=O)c1ccc2ccccc2c1)N1CCC(c2ccccc2)C(c2ccc(Cl)cc2)=N1` (stereo not drawn) [Compound 12f, methyl (Z)—N′—((Z)-(3-(4-chlorophenyl)-4-phenyl-5,6-dihydropyridazin-1 (4H)-yl)((naphthalen-2-ylsulfonyl)imino)methyl)carbamimidoselenoate], 317 nM.
As for `C[Se]/C(N)=N\C(=N\S(=O)(=O)c1ccccc1)N1CCC(c2ccccc2)C(c2ccc(Cl)cc2)=N1` (stereo not drawn) [Compound 12g, methyl (Z)—N′—((Z)-(3-(4-chlorophenyl)-4-phenyl-5,6-dihydropyridazin-1 (4H)-yl)((phenylsulfonyl)imino)methyl)carbamimidoselenoate], the Ki amounted to 2800 nM.
Still for that read-out and setting: to `COc1ccc(S(=O)(=O)/N=C(/N=C(/N)[Se]C)N2CCC(c3ccccc3)C(c3ccc(Cl)cc3)=N2)cc1` (stereo not drawn) [Compound 12h, methyl (Z)—N′—((Z)-(3-(4-chlorophenyl)-4-phenyl-5,6-dihydropyridazin-1 (4H)-yl)(((4-methoxyphenyl)sulfonyl)imino)methyl)carbamimidoselenoate] belongs 1100 nM.
Take `C[Se]/C(N)=N/C(=N/S(=O)(=O)c1ccc(C(F)(F)F)cc1)N1CCC(c2ccccc2)C(c2ccc(F)cc2)=N1` (stereo not drawn) [Compound 12i, methyl (E)-N′—((Z)-(3-(4-fluorophenyl)-4-phenyl-5,6-dihydropyridazin-1 (4H)-yl)(((4-(trifluoromethyl)phenyl)sulfonyl)imino)methyl)carbamimidoselenoate]: the Ki is 110 nM.
On the same count and under the same terms, to `CC(=O)N/C(N)=N\C(=N\S(=O)(=O)c1ccc(C#N)cc1)N1CCC(c2ccccc2)C(c2ccc(Cl)cc2)=N1` (stereo not drawn) [Compound 13a, N—((Z)—N′—((Z)-(3-(4-chlorophenyl)-4-phenyl-5,6-dihydropyridazin-1 (4H)-yl)(((4-cyanophenyl)sulfonyl)imino)methyl)carbamimidoyl) acetamide] belongs 24.6 nM.
On the same count and under the same terms, to `CC(=O)N/C(N)=N\C(=N\S(=O)(=O)c1ccc(C(F)(F)F)cc1)N1CCC(c2ccccc2)C(c2ccc(Cl)cc2)=N1` (stereo not drawn) [Compound 14, N—((Z)—N′—((Z)-(3-(4-chlorophenyl)-4-phenyl-5,6-dihydropyridazin-1 (4H)-yl)(((4-(trifluoromethyl)phenyl)sulfonyl)imino)methyl)carbamimidoyl) acetamide] belongs 5 nM; to `O=S(=O)(/N=C(\N=C1/CCCN1)N1CCC(c2ccccc2)C(c2ccc(Cl)cc2)=N1)c1ccc(C(F)(F)F)cc1` (stereo not drawn) [Compound 17, (E)-3-(4-chlorophenyl)-4-phenyl-N—((E)-pyrrolidin-2-ylidene)-N′-((4-(trifluoromethyl)phenyl)sulfonyl)-5,6-dihydropyridazine-1 (4H)-carboximidamide], 117 nM.
On the same count and under the same terms, to `CCN(CC)/C(N)=N/C(=N/S(=O)(=O)c1ccc(C(F)(F)F)cc1)N1CCC(c2ccccc2)C(c2ccc(Cl)cc2)=N1` (stereo not drawn) [Compound 18, (Z)—N—((E)-amino (diethylamino)methylene)-3-(4-chlorophenyl)-4-phenyl-N′-((4-(trifluoromethyl)phenyl)sulfonyl)-5,6-dihydropyridazine-1 (4H)-carboximidamide] belongs 536 nM; to `CC(C)(C)OC(=O)N/C(N)=N\C(=N\S(=O)(=O)c1ccc(C(F)(F)F)cc1)N1CCC(c2ccccc2)C(c2ccc(Cl)cc2)=N1` (stereo not drawn) [Compound 19], 383 nM; to `O=S(=O)(/N=C(\NC12CC3CC(CC(C3)C1)C2)N1CCC(c2ccccc2)C(c2ccc(Cl)cc2)=N1)c1ccc(C(F)(F)F)cc1` (stereo not drawn) [Compound 20, (E)-N-((3s,5s,7s)-adamantan-1-yl)-3-(4-chlorophenyl)-4-phenyl-N′-((4-(trifluoromethyl)phenyl)sulfonyl)-5,6-dihydropyridazine-1 (4H)-carboximidamide], 80.9 nM.
Take `O=C(O)CCCN/C(=N/S(=O)(=O)c1ccc(C(F)(F)F)cc1)N1CCC(c2ccccc2)C(c2ccc(Cl)cc2)=N1` (stereo not drawn) [Compound 21, (Z)-4-(3-(4-chlorophenyl)-4-phenyl-N′-((4-(trifluoromethyl)phenyl)sulfonyl)-1,4,5,6-tetrahydropyridazine-1-carboximidamido) butanoic acid]: the Ki was found to be 579 nM.
Same read-out and setting: to `NC(=S)NN/C(=N/S(=O)(=O)c1ccc(C(F)(F)F)cc1)N1CCC(c2ccccc2)C(c2ccc(Cl)cc2)=N1` (stereo not drawn) [Compound 22, (Z)-2-((3-(4-chlorophenyl)-4-phenyl-5,6-dihydropyridazin-1 (4H)-yl)(((4-(trifluoromethyl)phenyl)sulfonyl)imino)methyl) hydrazine-1-carbothioamide] belongs 575 nM.

Still in this test, the particulars now being: read-out: Ki (CB1) in nM.
Consider `C[Se]/C(N)=N\C(=N\S(=O)(=O)c1ccc(Cl)cc1)N1CCC(c2ccccc2)C(c2ccc(Cl)cc2)=N1` (stereo not drawn) [Compound 12a, methyl (Z)—N′—((Z)-(3-(4-chlorophenyl)-4-phenyl-5,6-dihydropyridazin-1 (4H)-yl)(((4-chlorophenyl)sulfonyl)imino)methyl)carbamimidoselenoate], for which the Ki was found to be 45 nM.
